# Data: BigSolDB 2.1
structure (smiles),measurement,setting,value
Cc1ncc(COP(=O)(O)O)c(C=O)c1O.O,solubility (mole fraction),"in acetone, 278.15 K",4.8e-07
same,solubility (mole fraction),"in acetone, 283.15 K",6.8e-07
same,solubility (mole fraction),"in acetone, 288.15 K",8.7e-07
same,solubility (mole fraction),"in acetone, 293.15 K",1.26e-06
same,solubility (mole fraction),"in acetone, 298.15 K",1.74e-06
same,solubility (mole fraction),"in acetone, 303.15 K",2.42e-06
same,solubility (mole fraction),"in acetone, 308.15 K",3.19e-06
same,solubility (mole fraction),"in acetone, 313.15 K",4.06e-06
same,solubility (mole fraction),"in acetone, 318.15 K",5.02e-06
same,solubility (mole fraction),"in ethanol, 278.15 K",2.81e-06
same,solubility (mole fraction),"in ethanol, 283.15 K",3.12e-06
same,solubility (mole fraction),"in ethanol, 288.15 K",3.5e-06
same,solubility (mole fraction),"in ethanol, 293.15 K",3.95e-06
same,solubility (mole fraction),"in ethanol, 298.15 K",4.18e-06
same,solubility (mole fraction),"in ethanol, 303.15 K",4.86e-06
same,solubility (mole fraction),"in ethanol, 308.15 K",6e-06
same,solubility (mole fraction),"in ethanol, 313.15 K",7.22e-06
same,solubility (mole fraction),"in ethanol, 318.15 K",8.59e-06
same,solubility (mole fraction),"in isopropanol, 278.15 K",2.35e-06
same,solubility (mole fraction),"in isopropanol, 283.15 K",2.45e-06
same,solubility (mole fraction),"in isopropanol, 288.15 K",2.77e-06
same,solubility (mole fraction),"in isopropanol, 293.15 K",3.2e-06
same,solubility (mole fraction),"in isopropanol, 298.15 K",3.73e-06
same,solubility (mole fraction),"in isopropanol, 303.15 K",4.59e-06
same,solubility (mole fraction),"in isopropanol, 308.15 K",5.66e-06
same,solubility (mole fraction),"in isopropanol, 313.15 K",7.04e-06
same,solubility (mole fraction),"in isopropanol, 318.15 K",9.17e-06
same,solubility (mole fraction),"in methanol, 278.15 K",4.5e-06
same,solubility (mole fraction),"in methanol, 283.15 K",5.92e-06
same,solubility (mole fraction),"in methanol, 288.15 K",8.99e-06
same,solubility (mole fraction),"in methanol, 293.15 K",1.33e-05
same,solubility (mole fraction),"in methanol, 298.15 K",1.83e-05
same,solubility (mole fraction),"in methanol, 303.15 K",2.39e-05
same,solubility (mole fraction),"in methanol, 308.15 K",3.18e-05
same,solubility (mole fraction),"in methanol, 313.15 K",4.17e-05
same,solubility (mole fraction),"in methanol, 318.15 K",5.38e-05
same,solubility (mole fraction),"in water, 278.15 K",0.000216
same,solubility (mole fraction),"in water, 283.15 K",0.000247
same,solubility (mole fraction),"in water, 288.15 K",0.000284
same,solubility (mole fraction),"in water, 293.15 K",0.000333
same,solubility (mole fraction),"in water, 298.15 K",0.000388
same,solubility (mole fraction),"in water, 303.15 K",0.000465
same,solubility (mole fraction),"in water, 308.15 K",0.000558
same,solubility (mole fraction),"in water, 313.15 K",0.00066
same,solubility (mole fraction),"in water, 318.15 K",0.000803
